Laboratory results from patent US20210038607A1, “OXADIAZOLYLTHIOPHENE DERIVATIVES USEFUL AS HISTONE DEACETYLASE INHIBITORS” (Karus Therapeutics Limited, priority 2018, published 2021).

Assays:
Human HDAC1 = molecular target: T1, Human HDAC1 (Homo sapiens, UniProt Q13547); assay: HDAC1 biochemical assay, AMC-labeled peptide substrate; settings: read-out: HDAC Isoform IC50 (nM) 1
T1 construct: full length with C-terminal His-tag and C-terminal FLAG-tag; His (C); FLAG (C); host or cells: baculovirus expression system
Outline: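 Baculovirus-expressed full-length human HDAC1 with His and FLAG tags, 0.3 ng/ul, incubated 1 h at 30° C with compound and 50 μM RHKK(Ac)AMC in Tris pH 8.0 buffer with BSA and 1% DMSO. Developer then releases AMC from deacetylated substrate; fluorescence read at 360/460 nm.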

Human HDAC4 = molecular target: T2, Human HDAC4 (Homo sapiens, UniProt P56524); assay: HDAC4 biochemical assay, class IIa-specific substrate; settings: read-out: HDAC Isoform IC50 (nM) 4
T2 construct: amino acids 627-1085 with N-terminal GST tag; GST (N); host or cells: baculovirus expression system
Outline: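 GST-tagged human HDAC4 (aa 627-1085, baculovirus) at 0.004 ng/ul was incubated 30 min at room temperature with 50 μM class IIa-specific substrate BOC-Lys(trifluoroacetyl)-AMC in Tris-HCl pH 8.0 buffer with BSA, 1% DMSO. Developer then released AMC, read at 360/460 nm.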

Human HDAC5 = molecular target: T3, Human HDAC5 (Homo sapiens, UniProt Q9UQL6); assay: HDAC5 biochemical assay, class IIa-specific substrate; settings: read-out: HDAC Isoform IC50 (nM) 5
T3 construct: full length with C-terminal His tag, MW=51.1 kDa; His (C); host or cells: baculovirus expression system
Outline: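 Full-length C-terminal His-tagged HDAC5 from baculovirus (0.05 ng/ul) incubated 30 min at room temperature with 50 μM Boc-Lys(trifluoroacetyl)-AMC and compound, Tris pH 8.0 buffer with BSA, 1% DMSO. Developer then releases AMC; fluorescence 360/460 nm.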

Recombinant human HDAC6 = molecular target: T4, Recombinant human HDAC6 (Homo sapiens, UniProt Q9UBN7); assay: HDAC6 biochemical assay, AMC-labeled peptide substrate; settings: HDAC6; read-out: HDAC Isoform IC50 (nM) 6
T4 construct: full length, MW=159 kDa; GST (N); host or cells: Sf9 insect cells (baculovirus)
T4 sequence (Q9UBN7 1-1215): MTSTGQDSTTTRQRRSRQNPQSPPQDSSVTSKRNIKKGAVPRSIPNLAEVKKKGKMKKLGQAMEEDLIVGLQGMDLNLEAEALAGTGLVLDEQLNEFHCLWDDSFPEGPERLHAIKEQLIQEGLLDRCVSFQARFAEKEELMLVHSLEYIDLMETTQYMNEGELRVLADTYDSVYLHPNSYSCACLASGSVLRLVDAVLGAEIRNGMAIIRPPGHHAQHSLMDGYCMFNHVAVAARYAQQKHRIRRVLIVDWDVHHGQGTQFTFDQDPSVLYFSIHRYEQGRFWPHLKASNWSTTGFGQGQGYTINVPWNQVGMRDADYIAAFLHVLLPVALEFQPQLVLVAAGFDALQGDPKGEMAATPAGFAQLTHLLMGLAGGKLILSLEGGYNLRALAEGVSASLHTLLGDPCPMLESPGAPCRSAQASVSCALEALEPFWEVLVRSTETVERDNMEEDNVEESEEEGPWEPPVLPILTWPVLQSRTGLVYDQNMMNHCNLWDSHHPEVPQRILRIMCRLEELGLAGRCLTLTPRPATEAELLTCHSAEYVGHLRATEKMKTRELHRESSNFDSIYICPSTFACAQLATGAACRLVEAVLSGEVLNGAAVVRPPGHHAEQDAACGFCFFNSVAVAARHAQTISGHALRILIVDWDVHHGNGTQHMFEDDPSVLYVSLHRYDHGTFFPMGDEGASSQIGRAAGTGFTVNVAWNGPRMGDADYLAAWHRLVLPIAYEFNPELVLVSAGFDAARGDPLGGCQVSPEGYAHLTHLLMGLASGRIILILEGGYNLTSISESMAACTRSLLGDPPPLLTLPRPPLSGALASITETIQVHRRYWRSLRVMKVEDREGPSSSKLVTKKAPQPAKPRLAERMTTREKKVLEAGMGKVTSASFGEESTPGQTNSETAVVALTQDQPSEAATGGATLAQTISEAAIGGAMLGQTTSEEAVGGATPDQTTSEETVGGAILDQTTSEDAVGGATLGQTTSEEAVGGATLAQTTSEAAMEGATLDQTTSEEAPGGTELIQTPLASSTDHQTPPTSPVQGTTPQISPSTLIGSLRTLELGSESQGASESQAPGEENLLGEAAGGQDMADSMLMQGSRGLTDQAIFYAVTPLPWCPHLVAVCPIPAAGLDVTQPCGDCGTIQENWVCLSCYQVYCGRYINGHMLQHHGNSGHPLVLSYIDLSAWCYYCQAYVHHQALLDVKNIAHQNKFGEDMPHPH
Outline: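 Two-step fluorogenic read-out: enzyme deacetylates 50 μM RHKK(Ac)AMC for 1 h at 30° C in pH 8.0 Tris buffer with BSA and 1% DMSO, then developer cleavage gives signal at Ex 360/Em 460. Enzyme: 0.3 ng/ul recombinant full-length human HDAC6, GST-tagged, Sf9-expressed.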

Human HDAC7 = molecular target: T5, Human HDAC7 (Homo sapiens, UniProt Q8WUI4); assay: HDAC7 biochemical assay, class IIa-specific substrate; settings: read-out: HDAC Isoform IC50 (nM) 7
T5 construct: (a.a. 518-end) with N-terminal GST tag; GST (N); host or cells: baculovirus expression system
T5 sequence (Q8WUI4 518-952 limits assumed): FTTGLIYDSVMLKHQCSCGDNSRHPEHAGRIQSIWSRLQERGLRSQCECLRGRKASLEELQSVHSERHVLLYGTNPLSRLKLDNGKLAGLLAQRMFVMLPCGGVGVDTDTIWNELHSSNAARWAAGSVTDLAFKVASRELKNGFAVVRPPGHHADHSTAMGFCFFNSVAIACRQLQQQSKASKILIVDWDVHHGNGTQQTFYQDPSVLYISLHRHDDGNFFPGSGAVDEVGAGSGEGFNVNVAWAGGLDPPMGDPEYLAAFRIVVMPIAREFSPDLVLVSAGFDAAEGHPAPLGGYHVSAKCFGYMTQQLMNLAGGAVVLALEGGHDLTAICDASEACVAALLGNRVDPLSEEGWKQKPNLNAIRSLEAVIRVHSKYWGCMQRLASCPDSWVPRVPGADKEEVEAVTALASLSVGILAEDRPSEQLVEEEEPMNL
Outline: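 GST-tagged HDAC7 (a.a. 518-end, baculovirus-expressed) at 0.001 ng/ul with 50 μM Boc-Lys(trifluoroacetyl)-AMC substrate, 30 min at room temperature in pH 8.0 Tris buffer with BSA, 1% DMSO final. Developer then releases AMC; fluorescence read at 360/460 nm.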

Human HDAC9 = molecular target: T6, Human HDAC9 (Homo sapiens, UniProt Q9UKV0); assay: HDAC9 biochemical assay, class IIa-specific substrate; settings: read-out: HDAC Isoform IC50 (nM) 9
T6 construct: amino acids 604-1066 with C-terminal His tag; His (C); host or cells: baculovirus expression system
Outline: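 HDAC9 residues 604-1066 (C-terminal His tag, baculovirus-expressed) at 0.06 ng/ul with 50 μM class IIa substrate Boc-Lys(trifluoroacetyl)-AMC in Tris-HCl pH 8.0 buffer with BSA and 1% DMSO. 30 min at room temperature, then developer added; fluorescence read at 360/460 nm Ex/Em.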

T3 sequence (Q9UQL6 656-1122 limits assumed): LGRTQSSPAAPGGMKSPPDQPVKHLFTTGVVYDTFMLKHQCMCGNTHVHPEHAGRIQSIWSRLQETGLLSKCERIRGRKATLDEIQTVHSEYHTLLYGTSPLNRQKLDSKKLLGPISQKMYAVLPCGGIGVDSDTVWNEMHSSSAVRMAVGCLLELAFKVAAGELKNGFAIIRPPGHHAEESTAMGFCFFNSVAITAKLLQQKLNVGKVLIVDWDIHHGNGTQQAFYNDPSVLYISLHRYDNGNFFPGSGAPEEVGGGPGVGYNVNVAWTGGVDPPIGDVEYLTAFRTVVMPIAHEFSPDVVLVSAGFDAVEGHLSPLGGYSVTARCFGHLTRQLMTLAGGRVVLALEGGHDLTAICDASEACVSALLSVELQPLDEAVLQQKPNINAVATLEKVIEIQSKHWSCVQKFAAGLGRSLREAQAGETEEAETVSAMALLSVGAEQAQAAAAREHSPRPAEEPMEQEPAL
T6 sequence (Q9UKV0 604-1066 isoform Q9UKV0-5): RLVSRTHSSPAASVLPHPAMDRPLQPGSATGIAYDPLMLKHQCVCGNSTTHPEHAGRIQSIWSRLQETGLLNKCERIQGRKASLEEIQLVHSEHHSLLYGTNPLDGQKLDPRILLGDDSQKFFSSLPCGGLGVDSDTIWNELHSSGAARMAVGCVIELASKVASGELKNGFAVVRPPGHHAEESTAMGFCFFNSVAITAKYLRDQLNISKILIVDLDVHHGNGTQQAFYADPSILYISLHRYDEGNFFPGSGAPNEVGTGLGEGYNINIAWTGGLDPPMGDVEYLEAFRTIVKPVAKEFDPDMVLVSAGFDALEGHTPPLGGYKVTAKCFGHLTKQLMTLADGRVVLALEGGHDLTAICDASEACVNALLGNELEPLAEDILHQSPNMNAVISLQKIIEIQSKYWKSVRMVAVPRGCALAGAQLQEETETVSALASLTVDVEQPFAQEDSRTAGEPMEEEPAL
T2 sequence (P56524 627-1084 limits assumed): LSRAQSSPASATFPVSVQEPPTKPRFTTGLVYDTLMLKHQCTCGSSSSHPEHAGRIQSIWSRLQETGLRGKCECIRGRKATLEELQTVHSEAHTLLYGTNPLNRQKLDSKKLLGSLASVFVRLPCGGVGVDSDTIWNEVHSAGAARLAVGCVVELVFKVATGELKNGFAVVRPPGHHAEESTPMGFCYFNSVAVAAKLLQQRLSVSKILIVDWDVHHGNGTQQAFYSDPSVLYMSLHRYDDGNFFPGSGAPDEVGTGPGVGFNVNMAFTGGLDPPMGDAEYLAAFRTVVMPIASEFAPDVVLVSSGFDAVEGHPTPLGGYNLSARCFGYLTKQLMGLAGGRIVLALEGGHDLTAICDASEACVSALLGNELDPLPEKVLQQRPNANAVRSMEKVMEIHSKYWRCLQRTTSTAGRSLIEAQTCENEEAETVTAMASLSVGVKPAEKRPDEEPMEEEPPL
T1 sequence (Q13547 whole entry, canonical isoform): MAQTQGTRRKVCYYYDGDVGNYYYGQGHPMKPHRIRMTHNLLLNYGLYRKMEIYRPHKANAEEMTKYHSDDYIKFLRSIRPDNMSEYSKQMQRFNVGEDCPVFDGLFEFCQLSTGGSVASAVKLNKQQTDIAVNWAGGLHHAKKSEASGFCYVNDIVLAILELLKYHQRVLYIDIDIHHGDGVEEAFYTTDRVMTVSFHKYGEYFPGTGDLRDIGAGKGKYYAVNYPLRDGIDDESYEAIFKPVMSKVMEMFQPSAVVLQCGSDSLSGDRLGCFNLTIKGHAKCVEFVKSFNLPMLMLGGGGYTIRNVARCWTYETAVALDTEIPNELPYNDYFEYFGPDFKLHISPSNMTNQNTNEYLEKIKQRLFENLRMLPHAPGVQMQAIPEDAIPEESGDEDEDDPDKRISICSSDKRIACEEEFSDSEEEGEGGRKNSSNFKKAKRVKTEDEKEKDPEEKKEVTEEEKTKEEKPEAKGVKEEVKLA

Structure (SMILES)	IC50 (Human HDAC1)	IC50 (Human HDAC4)	IC50 (Human HDAC5)	IC50 (Recombinant human HDAC6)	IC50 (Human HDAC7)	IC50 (Human HDAC9)
Cc1ccnc(N(Cc2ccc(-c3noc(C(F)(F)F)n3)s2)c2cnccn2)n1 [Example AT, 4-Methyl-N-(pyrazin-2-yl)-N-({5-[5-(trifluoromethyl)-1,2,4-oxadiazol-3-yl]thiophen-2-yl}methyl)pyrimidin-2-amine]	> 10000 nM	≤ 10000 nM	≤ 10000 nM	≤ 10000 nM	≤ 10000 nM	≤ 10000 nM
COCc1nccnc1N(Cc1ccc(-c2noc(C(F)(F)F)n2)s1)c1cnccn1 [Example BG, 3-(Methoxymethyl)-N-(pyrazin-2-yl)-N-({5-[5-(trifluoromethyl)-1,2,4-oxadiazol-3-yl]thiophen-2-yl}methyl)pyrazin-2-amine]	> 10000 nM	≤ 10000 nM	≤ 1000 nM	≤ 1000 nM	≤ 10000 nM	≤ 10000 nM
FC(F)(F)c1nc(-c2ccc(CN(c3ccncc3)c3cnccn3)s2)no1 [Example AR, N-(Pyridin-4-yl)-N-({5-[5-(trifluoromethyl)-1,2,4-oxadiazol-3-yl]thiophen-2-yl}methyl)pyrazin-2-amine]	> 10000 nM	≤ 500 nM	≤ 500 nM	≤ 500 nM	≤ 500 nM	≤ 1000 nM
CC(c1ccc(-c2noc(C(F)(F)F)n2)s1)N(c1cnccn1)c1cnccn1 (stereo not drawn) [Example BB, N-(Pyrazin-2-yl)-N-(1-{5-[5-(trifluoromethyl)-1,2,4-oxadiazol-3-yl]thiophen-2-yl}ethyl)pyrazin-2-amine]	> 10000 nM	≤ 500 nM	≤ 500 nM	≤ 10000 nM	≤ 1000 nM	≤ 10000 nM
FC(F)(F)c1nc(-c2ccc(CN(c3cnccn3)c3ncccc3N3CCOCC3)s2)no1 [Example AN, N-[3-(Morpholin-4-yl)pyridin-2-yl]-N-({5-[5-(trifluoromethyl)-1,2,4-oxadiazol-3-yl]thiophen-2-yl}methyl)pyrazin-2-amine]	> 10000 nM	≤ 10000 nM	≤ 10000 nM	≤ 1000 nM	≤ 10000 nM	≤ 10000 nM
COc1ccc2ncnc(N(Cc3ccc(-c4noc(C(F)(F)F)n4)s3)c3cnccn3)c2c1 [Example CN, 6-Methoxy-N-(pyrazin-2-yl)-N-({5-[5-(trifluoromethyl)-1,2,4-oxadiazol-3-yl]thiophen-2-yl}methyl)quinazolin-4-amine]	> 10000 nM	≤ 10000 nM	≤ 1000 nM	≤ 1000 nM	≤ 10000 nM	≤ 10000 nM
